Eight compounds from patent US9394284B2, “Compounds act at multiple prostaglandin receptors giving a general anti-inflammatory response” (Allergan, Inc., priority 2010, dated 2016) can be followed below.

Type in all cases: cell-based
Experiment [1] has as its target T1, human prostanoid FP receptor (Homo sapiens, UniProt P43088).
T1 construct: expressed in transfected cells
Kind of experiment: FLIPR Ca2+ signaling antagonist assay, FP receptor stable cell line. The conditions noted are these: HEK-293 EBNA stable cell line; standard agonist 17-phenyl-PGF2α; NA = inactive (no antagonism or Kb 10,000 nM); PAg, Ag not defined. The method in brief: (§1)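 Peak Fluo-4 fluorescence (ex 470–495, em 515–575 nm) was read for 3.5 min on FLIPR after agonist injection and expressed relative to 10^−6 M standard agonist. Cells were HEK-293 EBNA transfectants. Test compound was added 4.5 min beforehand at 0.1–30 μM, or 0.067–1 μM for TP.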

Experiment [2] has as its target T2, human prostanoid DP1 receptor (Homo sapiens, UniProt Q13258).
T2 construct: expressed in transfected cells
T2 sequence (Q13258 1-359): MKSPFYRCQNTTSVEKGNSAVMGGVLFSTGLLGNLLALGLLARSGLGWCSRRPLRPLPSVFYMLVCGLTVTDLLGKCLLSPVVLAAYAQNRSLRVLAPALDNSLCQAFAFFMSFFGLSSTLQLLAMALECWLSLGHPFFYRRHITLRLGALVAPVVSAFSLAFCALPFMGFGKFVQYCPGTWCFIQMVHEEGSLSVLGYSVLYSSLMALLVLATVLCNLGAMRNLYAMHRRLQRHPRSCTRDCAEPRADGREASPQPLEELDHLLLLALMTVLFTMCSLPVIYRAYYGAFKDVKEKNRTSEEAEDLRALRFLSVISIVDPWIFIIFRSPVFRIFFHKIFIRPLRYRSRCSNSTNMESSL
Nature of the experiment: FLIPR Ca2+ signaling antagonist assay, DP1 receptor stable cell line. The settings on record: HEK-293 EBNA stable cell line; standard agonist BW 245C; NA = inactive (no antagonism or Kb 10,000 nM); PAg, Ag not defined. The method in brief: as §1

Experiment [3] deals with T3, human prostanoid EP2 receptor (Homo sapiens, UniProt P43116).
T3 construct: expressed in transfected cells
Nature of the experiment: FLIPR Ca2+ signaling antagonist assay, EP2 receptor stable cell line. The settings on record: HEK-293 EBNA stable cell line; standard agonist PGE2; NA = inactive (no antagonism or Kb 10,000 nM); PAg, Ag not defined. As to the method:
(§2) The above compounds were tested for PG antagonist activity as follows using human recombinant prostanoid receptor (DP1, EP1-4, FP, IP and TP) stable cell lines:
(§3) In order to measure the response of Gs and Gi coupled prostanoid receptors as a Ca^2+ signal, chimeric G protein cDNAs were used. Stable cell lines over-expressing human prostanoid DP1, EP1-4, FP, IP, and TP receptors were established as follows:
(§4) Briefly, human prostanoid DP1, EP2, and EP4 receptor cDNAs were co-transfected with chimeric Gqs cDNA containing a haemagglutanin (HA) epitope; human prostanoid EP3 receptors were co-transfected with chimeric Gqi-HA; human EP1, FP, IP, and TP receptor cDNAs were expressed with no exogenous G-proteins. Gqs and Gqi chimeric cDNAs (Molecular Devices, Sunnyvale, Calif., U.S.A.), as well as cDNAs of prostanoid receptors, were cloned into a pCEP4 vector with a hygromycin B selection marker. Transfection into HEK-293 EBNA (Epstein-Barr virus nuclear antigen) cells was achieved by the FuGENE 6 transfection Reagent (Roche Applied Science, Indianapolis, Ind., USA). Stable transfectants were selected according to hygromycin resistance. Because Gqs and Gqi contained an HA epitope, G-protein expression was detected by Western blotting analysis using anti-mouse HA monoclonal antibody and horseradish peroxidase (HRP)-conjugated secondary antibody, while functional expression of prostanoid receptors was detected by FLIPR screening (Matias et al., 2004). These stable cell lines were validated using previously published antagonists at 10 μM against serial dilutions of standard agonists by FLIPR functional assays for Ca^2+ Signaling (as described below).
(§5) Ca^2+ signaling studies were performed using a FLIPR TETRA system (Molecular Devices, Sunnyvale, Calif., USA) in the 384-format. This is a high-throughput instrument for cell-based assays to monitor Ca^2+ signaling associated with GPCRs and ion channels. Cells were seeded at a density of 5×10^4 cells/well in BioCoat poly-D-lysine coated, black wall, clear bottom 384-well plates (BD Biosciences, Franklin lakes, NJ, USA) and allowed to attach overnight in an incubator at 37° C. The cells were then washed twice with HBSS-HEPES buffer (Hanks' balanced salt solution without bicarbonate and phenol red, 20 mM HEPES, pH 7.4) using an ELx405 Select CW Microplate Washer (BioTek, Winooski, Vt., USA). After 60 min of dye-loading in the dark using the Ca^2+-sensitive dye Fluo-4AM (Invitrogen, Carlsbad, Calif., USA), at a final concentration of 2×10^−6M, the plates were washed 4 times with HBSS-HEPES buffer to remove excess dye and leaving 50 μl of buffer in each well. The plates were then placed in the FLIPR TETRA instrument and allowed to equilibrate at 37° C. AGN-211377 was added in a 25 μl volume to each well to give final concentrations of 0.1 μM, 0.3 μM, 1 μM, 3 μM, 10 μM, and 30 μM; or 0.067 μM, 0.1 μM, 0.2 μM, 0.3 μM, 0.67 μM, and 1 μM for cells over-expressing TP receptors. After 4.5 minutes, a 7-point serial dilution of the standard agonist for the corresponding receptor, in a 25 μl volume was injected at the final concentrations from 10^−11M to 10^−5M in 10-fold serial dilution increments for cells expressing human recombinant DP1, EP1, EP2, EP3, EP4, FP, and IP receptors. The dose range for the standard agonist for human recombinant TP receptors was from 10^−12 M to 10^−6 M. HBSS-HEPES buffer was used as the negative control for the standard agonists. Cells were excited with LED (light emitting diode) excitation at 470-495 nm and emission was measured through an emission filter at 515-575 nm. Assay plates were read for 3.5 minutes using the FLIPR^TETRA. The peak increase in fluorescence intensity was recorded for each well. On each plate, negative controls, dose response of positive controls, and co-treatments of antagonist-agonist for each dose were in triplicates.
(§6) Standard agonists were as follows: DP=BW 245C, EP1-EP4=PGE2, FP=17-phenyl-PGF2α, IP=Cicaprost, and TP=U-46619. […]

Experiment [4] concerns the target T4, human prostanoid EP3 receptor (Homo sapiens, UniProt P43115).
T4 construct: expressed in transfected cells
T4 sequence (P43115 1-390): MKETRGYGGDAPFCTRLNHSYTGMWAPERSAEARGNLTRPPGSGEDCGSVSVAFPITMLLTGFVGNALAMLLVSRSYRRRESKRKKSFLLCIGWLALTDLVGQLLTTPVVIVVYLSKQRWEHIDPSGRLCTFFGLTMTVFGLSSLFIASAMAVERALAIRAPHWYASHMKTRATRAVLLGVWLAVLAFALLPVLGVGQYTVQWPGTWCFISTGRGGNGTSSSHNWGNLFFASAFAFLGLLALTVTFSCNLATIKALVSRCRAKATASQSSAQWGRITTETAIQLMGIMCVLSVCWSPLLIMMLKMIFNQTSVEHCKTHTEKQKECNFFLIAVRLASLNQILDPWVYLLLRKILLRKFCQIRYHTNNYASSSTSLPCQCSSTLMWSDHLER
Kind of experiment: FLIPR Ca2+ signaling antagonist assay, EP3 receptor stable cell line. The conditions noted are these: HEK-293 EBNA stable cell line; standard agonist PGE2; NA = inactive (no antagonism or Kb 10,000 nM); PAg, Ag not defined. The protocol: as §2, §3, §4, §5, §6

A word on the Kb: it is the affinity of an antagonist, worked out from how it opposes an agonist. The low end stands for a more potent antagonist, the high end for a less potent antagonist.

T3 sequence (P43116 whole entry): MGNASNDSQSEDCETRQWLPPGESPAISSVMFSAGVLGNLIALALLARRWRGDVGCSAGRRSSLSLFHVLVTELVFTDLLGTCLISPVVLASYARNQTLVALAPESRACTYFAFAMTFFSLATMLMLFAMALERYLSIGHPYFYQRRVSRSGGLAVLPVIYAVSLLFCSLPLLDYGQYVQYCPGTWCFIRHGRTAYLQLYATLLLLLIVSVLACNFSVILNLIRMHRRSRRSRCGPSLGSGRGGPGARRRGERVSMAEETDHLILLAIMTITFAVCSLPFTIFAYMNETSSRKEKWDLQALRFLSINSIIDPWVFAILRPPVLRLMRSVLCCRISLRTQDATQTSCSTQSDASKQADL
T1 sequence (P43088 whole entry): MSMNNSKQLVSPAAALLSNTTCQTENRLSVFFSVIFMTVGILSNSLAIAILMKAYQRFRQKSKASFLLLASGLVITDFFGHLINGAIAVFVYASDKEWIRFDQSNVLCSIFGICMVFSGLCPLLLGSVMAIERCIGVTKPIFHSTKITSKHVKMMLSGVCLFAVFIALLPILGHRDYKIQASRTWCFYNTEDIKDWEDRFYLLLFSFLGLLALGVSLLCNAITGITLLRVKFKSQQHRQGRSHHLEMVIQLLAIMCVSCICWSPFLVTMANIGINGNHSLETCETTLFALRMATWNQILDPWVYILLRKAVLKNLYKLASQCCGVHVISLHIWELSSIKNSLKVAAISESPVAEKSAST

As for `CCC(CC)COc1ccc(Cl)cc1Cn1nc(CC(C)C(=O)O)cc1C` (racemic) [Example 68, 3-{1-[5-Chloro-2-(2-ethyl-butoxy)-benzyl]-5-methyl-1H-pyrazol-3-yl}-2-methyl-propionic acid], the antagonist equilibrium constant (Kb) in experiment [1] is 400 nM; in experiment [2], 260 nM; in experiment [3], 45 nM; in experiment [4], 5200 nM.
As to `Cc1cc(CCC(=O)NS(=O)(=O)c2ccccc2)nn1Cc1cc(Cl)ccc1OCc1ccc(Cl)cc1` [Example 24, N-(3-[1-(5-Chloro-2-(4-chlorobenzyloxy)benzyl)-5-methyl-1H-pyrazol-3-yl]-propionyl)benzenesulfonamide], the Kb was 800 nM in experiment [1], 800 nM in experiment [2], 5500 nM in experiment [3] and 2500 nM in experiment [4].
For the compound `Cc1cc(CCC(=O)O)nn1Cc1cc(Cl)ccc1OCC(C)(C)C` [Example 35, 3-[1-(5-Chloro-2-(2,2-dimethylropoxy)benzyl)-5-methyl-1H-pyrazol-3-yl]-propionic acid], the Kb amounted to 110 nM in experiment [1], 3200 nM in experiment [3] and 5400 nM in experiment [4]. Further, in experiment [2], the “DP1 (FLIPR) Kb” value is “PAg”.
For `Cc1cc(CCC(=O)O)nn1Cc1cc(Cl)ccc1OCCCC(C)C` [Example 40, 3-[1-(5-Chloro-2-(4-methylpentyloxy)benzyl)-5-methyl-1H-pyrazol-3-yl]-propionic acid] the same measures were 360 nM, 1400 nM, 5700 nM and “PAg”.
Consider `Cc1cc(CCC(=O)NS(=O)(=O)C(F)(F)F)nn1Cc1cc(Cl)ccc1OCC1CCCC1` [Example 43, N-(3-[1-(5-Chloro-2-cyclopentylmethoxybenzyl)-5-methyl-1H-pyrazol-3-yl]-propionyl)C,C,C-trifluoromethanesulfon amide], for which the Kb in experiment [1] stood at 400 nM; in experiment [4], 1700 nM. For the same compound, the “DP1 (FLIPR) Kb” value in experiment [2] is “PAg”. Moreover, in experiment [3], the “EP2 (FLIPR) Kb” value is recorded as “PAg”.
Take `Cc1cc(CCC(=O)O)nn1Cc1cc(OC(F)(F)F)ccc1OCC1CCCC1` [Example 50, 3-[1-(2-Cyclopentylmethoxy-5-trifluoromethoxy-benzyl)-5-methyl-1H-pyrazol-3-yl]-propionic acid]: the Kb in experiment [1] came to 90 nM; in experiment [3], 4500 nM; in experiment [4] it was 7100 nM. Further, the “DP1 (FLIPR) Kb” value in experiment [2] is recorded as “Ag”.
As for `Cc1cc(CCC(=O)O)nn1Cc1cc(OC(F)(F)F)ccc1OCc1ccc(Cl)cc1` [Example 51, 3-[1-[2-(4-Chloro-benzyloxy)-5-trifluoromethoxy-benzyl]-5-methyl-1H-pyrazol-3-yl]-propionic acid], the Kb in experiment [1] was 20 nM; in experiment [2] it was 600 nM; in experiment [3] it was 500 nM; in experiment [4] it was 6600 nM.
For `Cc1cc(CCC(=O)O)nn1Cc1cc(C(F)(F)F)ccc1OCc1ccc(Cl)cc1` [Example 52, 3-[1-[2-(4-Chloro-benzyloxy)-5-trifluoromethyl-benzyl]-5-methyl-1H-pyrazol-3-yl]-propionic acid], in that order: 30 nM, 100 nM, 2200 nM and 2800 nM.
